Assay [1] has as its target T1, Trace amine-associated receptor 1 (Homo sapiens) (UniProt Q96RJ0).
T1 sequence (whole entry): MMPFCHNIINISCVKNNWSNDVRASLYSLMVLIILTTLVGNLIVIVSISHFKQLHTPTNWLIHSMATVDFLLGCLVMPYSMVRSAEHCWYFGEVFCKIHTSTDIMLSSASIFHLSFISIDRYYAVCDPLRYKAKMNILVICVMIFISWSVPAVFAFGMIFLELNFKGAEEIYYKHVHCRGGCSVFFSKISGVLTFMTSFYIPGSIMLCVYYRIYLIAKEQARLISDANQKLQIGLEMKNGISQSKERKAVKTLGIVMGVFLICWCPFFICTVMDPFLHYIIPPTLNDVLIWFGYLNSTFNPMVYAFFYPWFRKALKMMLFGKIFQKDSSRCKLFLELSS
As to the kind of experiment: Antagonist activity at human TAAR1 receptor expressed in HEK293T cells cotransfected with beta-2 receptor assessed as inhibition of beta-PEA-induced cAMP production at 100 uM by BRET assay. Format: functional, cell-based. Conditions: HEK-293T. On the technique in general: Changes in cAMP serve as a functional read-out for many G protein-coupled receptors.

Assay [2] addresses T1, Trace amine-associated receptor 1 (Homo sapiens). As to the kind of experiment: Agonist activity at human TAAR1 receptor expressed in HEK293T cells cotransfected with beta-2 receptor assessed as cAMP production at 100 uM by BRET assay. Format: functional, cell-based. Conditions: HEK-293T.
Assay [3] has as its target T2, Trace amine-associated receptor 1 (Homo sapiens, UniProt Q96RJ0).
T2 sequence (Q96RJ0 whole entry): T1 sequence (whole entry)
The experiment in a line: Agonist activity at human TAAR1 receptor expressed in HEK293T cells cotransfected with beta-2 receptor assessed as cAMP production by BRET assay. Format: functional, cell-based, HEK-293T.

Assay [4] has as its target T1, Trace amine-associated receptor 1 (Homo sapiens). As to the kind of experiment: Agonist activity at human TAAR1 receptor expressed in HEK293T cells cotransfected with beta-2 receptor assessed as cAMP production by BRET assay relative to beta-PEA. To be noted: HEK-293T. Format: functional, cell-based. Also on record: concentration or dose not given beside the values.

Usually pEC50 stands for the EC50 on a negative log10 scale, so that one unit is a factor of ten.

pEC50: −log10 of the molar value. Activity calls are given as the source filed them. The calls are words filed in the database; no cut-off is given here.

Consider `CN(Cc1ccc(Br)cc1)Cc1cccc(C(N)=O)c1`, for which the result in assay [1] was Active.

As to `Cn1c(C2CCCN2)nc2ccccc21` (centres undefined), in assay [2], the result was Active. Moreover, the pEC50 in assay [3] is 4.74. For the same molecule, the Activity in assay [4] worked out at 55.8%.

Consider `N=C(N)c1cccc(COc2ccccc2)c1`, for which the result in assay [1] was Active.

As to `CN(Cn1ncc2cc([N+](=O)[O-])ccc21)[C@@H]1CCc2ccccc21`, in assay [2], the outcome was Active.

Regarding `c1ccc2sc(C3CCCN3)nc2c1` (centres undefined), in assay [3], the pEC50 was less than 4.00. For the same molecule, in assay [4], the Activity amounted to 42.9%.

For `Cc1cccc(CCN(C)C[C@H](O)c2ccccc2)c1`, the outcome in assay [2] was Active. Also, the pEC50 in assay [3] was 4.29. The Activity in assay [4] came to 67.5%.

For the molecule `N=C(N)N/N=C/c1ccc2c(c1)OCO2`, the pEC50 in assay [3] is less than 4.00. For the same molecule, the Activity in assay [4] was determined as 6.9%.

On to `CCC(=O)/N=C(\N)Nc1nc2ccccc2o1`, for which the result in assay [1] was Active.

For `Cn1c(C2CCCCN2)nc2ccccc21` (centres undefined), the pEC50 in assay [3] was less than 4.00. Besides, in assay [4], the Activity turned out to be 38.4%.

On to `N=C(N)N/N=C/c1cccc(Br)c1`, for which, in assay [4], the Activity is -5.4%.

For the molecule `CNCc1nc2ccccc2n1C(F)F`, in assay [2], the result was Active.

In the case of `COc1ccc2[nH]cc(CN(C)C)c2c1`, in assay [2], the result was Active.

On to `Cn1c(CN)nc2ccccc21`, for which the negative-log EC50 (pEC50) in assay [3] was less than 4.00. Further, the Activity in assay [4] turned out to be 21.6%.

With `N=C(N)N/N=C/c1cccc(OCc2ccccc2)c1`, the Activity in assay [4] came to 75%.

As for `Fc1ccc2c(CCNCc3cnn(-c4ccccc4)c3)c[nH]c2c1`, the outcome in assay [1] was Active.

Take `C=CCn1cc(CN[C@H](C)Cn2ccc3ccccc32)c(C)n1`: in assay [1], the result was Active.

As to `CC(C)n1c(C2CCCN2)nc2ccccc21` (centres undefined), the negative-log EC50 (pEC50) in assay [3] is 4.92. In assay [4], the Activity is 43.4%.

For `C[C@@H](CNCCO)c1ccccc1`, the outcome in assay [2] was Active.

Turning to `NCCc1ccccc1` [PHENETHYLAMINE], the pEC50 in assay [3] was 6.96.

As to `Clc1ccc(CNCc2ccc(Cn3cncn3)cc2)c(Cl)c1`, in assay [1], the result was Active.

Take `c1ccc2c(c1)nnn2C[C@H]1CCCN1`: the result in assay [2] was Active.

For the molecule `N=C(N)N/N=C/c1c(Cl)cccc1Cl` [GUANABENZ], the negative logarithm of the EC50 (pEC50) in assay [3] is 7.05. Further, in assay [4], the Activity was found to be 35.5%.

With `NC(N)=N/N=C/c1cccc(OCc2ccccc2)c1`, in assay [3], the pEC50 is less than 4.00.

As for `NC(N)=N/N=C/c1cccc(Br)c1`, the pEC50 in assay [3] was less than 4.00.

In the case of `COc1cccc(/C=N/NC(=N)N)c1`, the result in assay [2] and in assay [1] was Active. The Activity in assay [4] was 24%.

As for `COc1cccc(/C=N/N=C(N)N)c1`, the negative-log EC50 (pEC50) in assay [3] was 5.91.

With `C#CCN[C@H](C)Cc1ccccc1`, in assay [2], the result was Active.

Turning to `CCn1c(C2CCCN2)nc2ccccc21` (centres undefined), in assay [3], the pEC50 is less than 4.00. The Activity in assay [4] stood at 22.1%.

With `N=C(N)N/N=C1\CCCc2ccccc21`, the result in assay [1] was Active.

Turning to `N=C(N)N/N=C/c1ccccc1`, in assay [3], the pEC50 is 6.77. For the same molecule, the Activity in assay [4] came out at 85.5%.

For the origin of these results see ChEMBL document CHEMBL3769363, “Discovery of trace amine-associated receptor 1 ligands by molecular docking screening against a homology model” (Medchemcomm, 2015).
